Data published in ChEMBL document CHEMBL1121792, “Quantitative structure-activity relationships of colchicines against P388 leukemia in mice” (J Med Chem, 1981).

Tested on: not listed separately
Experiment: physchem
Settings: octanol/water
Description: Partition coefficient (logP)

Row | logP | Compound
1 | -0.58 | COc1cc2c(c(OC)c1OC)-c1ccc(S(C)(=O)=O)c(=O)cc1[C@@H](NC(C)=O)CC2
2 | 1.71 | COc1cc2c(c(OC)c1OC)-c1ccc(OC)c(=O)cc1[C@@H](NC(=O)CCl)CC2
3 | 2.96 | COc1cc2c(c(OC)c1OC)-c1ccc(OC)c(=O)cc1[C@@H](NC(=O)c1ccc([N+](=O)[O-])cc1)CC2
4 | 4.61 | COc1cc2c(c(OC)c1OC)-c1ccc(SC)c(=O)cc1[C@@H](NO[C@H]1[C@H](OC(C)=O)[C@@H](OC(C)=O)[C@H](OC(C)=O)O[C@@H]1COC(C)=O)CC2
5 | 0.93 | COc1ccc2c(c1OC)-c1ccc(OC)c(=O)cc1[C@@H](NC(C)=O)CC2
6 | 2.36 | COc1cc2c(c(OC)c1OC)-c1ccc(OC)c(=O)cc1[C@@H](NC(=O)C(F)(F)F)CC2
7 | -0.53 | COc1cc2c(c(OC)c1OC)-c1ccc([S+](C)[O-])c(=O)cc1[C@@H](NC(C)=O)CC2 (stereo not given in full)
8 | -2.1 | COC(=O)C(N)CCCC/N=c1\ccc2c(cc1O)[C@@H](NC(C)=O)CCc1cc(OC)c(OC)c(OC)c1-2 (stereo not given in full)
9 | 1.25 | COc1cc2c(c(OC)c1OC)-c1ccc(SC)c(=O)cc1[C@@H](NC1C(CO)OC(O)C(O)C1O)CC2 (stereo not given in full)
10 | 0.97 | COc1cc2c(c(OC)c1OC)-c1ccc(S(=O)(=O)Cc3ccccc3)c(=O)cc1[C@@H](NC(C)=O)CC2
11 | 1.4 | COc1cc2c(c(OC)c1OC)-c1ccc(SC)c(=O)cc1[C@@H](NC1COC(O)C(O)C1O)CC2 (stereo not given in full)
12 | 2.07 | COc1cc2c(c(OC)c1OC)-c1ccc(OC)c(=O)cc1[C@@H](N(C)C)CC2

The next lines start with the molecule.

Row | Compound | logP
13 | CN[C@H]1CCc2cc(OC)c(OC)c(OC)c2-c2ccc(SC)c(=O)cc21 | 2.22
14 | CCOC(=O)N[C@H]1CCc2cc(OC)c(OC)c(OC)c2-c2ccc(SC)c(=O)cc21 | 3.12
15 | COc1cc2c(c(OC)c1OC)-c1ccc(SC)c(=O)cc1[C@@H](NC(=O)C(F)(F)F)CC2 | 2.99
16 | COc1cc2c(c(OC)c1OC)-c1ccc(OC)c(=O)cc1[C@@H](NC(=O)c1ccccc1)CC2 | 2.94
17 | COc1cc2c(c(OC)c1OC)-c1ccc(SC)c(=O)cc1[C@@H](N)CC2 | 1.73
18 | COc1cc2c(c(OC)c1OC)-c1ccc(SC)c(=O)cc1[C@@H](NC(=O)NCCCl)CC2 | 3.53
19 | COc1cc2c(c(OC)c1OC)-c1ccc(SC)c(=O)cc1[C@@H](NC(=O)CCl)CC2 | 2.34
20 | COc1cc2c(c(OC)c1OC)-c1ccc(SC)c(=O)cc1[C@@H](NC(=O)CO)CC2 | 1.5
21 | COc1cc2c(c(OC)c1OC)-c1ccc(OC)c(=O)cc1[C@@H](NC=O)CC2 | 1.02
22 | COc1cc2c(c(OC)c1OC)-c1cc/c(=N\Cc3ccccc3)c(O)cc1[C@@H](NC(C)=O)CC2 | 2.14
23 | COc1cc2c(c(OC)c1OC)-c1ccc(OC)c(=O)cc1[C@@H](NC(=O)CF)CC2 | 1.19
24 | COc1cc2c(c(OC)c1OC)-c1ccc(SCc3ccccc3)c(=O)cc1[C@@H](NC(C)=O)CC2 | 3.21
25 | CNc1ccc2c(cc1=O)[C@@H](NC(C)=O)CCc1cc(OC)c(OC)c(OC)c1-2 | 0.58
26 | COc1cc2c(c(OC)c1OC)-c1ccc(OC)c(=O)cc1[C@@H](NC(C)=O)CC2 [COLCHICINE] | 1.03
27 | COc1cc2c(c(OC)c1OC)-c1ccc(OC)c(=O)cc1[C@@H](N)CC2 [DEACETYLCOLCHICINE] | 1.1
28 | CN[C@H]1CCc2cc(OC)c(OC)c(OC)c2-c2ccc(OC)c(=O)cc21 [DEMECOLCINE] | 1.53
29 | COc1cc2c(c(OC)c1OC)-c1ccc(SC)c(=O)cc1[C@@H](NC(C)=O)CC2 [THIOCOLCHICINE] | 1.66

Tested on: P388
Experiment: Compound was tested for antitumor activity against lymphocytic leukemia P388 cells in mice
Type: functional, Mus musculus
Settings: not given

Row | Compound | Log 1/C
30 | COc1cc2c(c(OC)c1OC)-c1ccc(OC)c(=O)cc1[C@@H](N(C)C)CC2 | 4.03
